According to ChEMBL document CHEMBL4732090, “Preparation of new 1,3-dibenzyl tetrahydropyridinylidene ammonium salts and their antimicrobial and anticellular activities” (Eur J Med Chem, 2021):

Key:
[1] = tested on: Staphylococcus epidermidis; assay: Antibacterial activity against Staphylococcus epidermis ATCC 12228 assessed as diameter of inhibition zone at 10 mg/ml by disk diffusion assay; format: functional; conditions: read-out: DIZ
Plasmodium falciparum [2] = assay: Antiplasmodial activity against Plasmodium falciparum NF54 erythrocytic stages assessed as reduction in [3H]hypoxanthine incorporation measured after 48 hrs by liquid scintillation counting method; format: functional, organism-based
[3] = Selectivity index, ratio of IC50 for rat L6 cells to IC50 for Plasmodium falciparum NF54; format: toxicity; conditions: read-out: Ratio IC50
Candida albicans = assay: Antifungal activity against Candida albicans ATCC 90028 assessed as diameter of inhibition zone at 10 mg/ml by disk diffusion assay; format: functional; conditions: read-out: DIZ
Pseudomonas aeruginosa = assay: Antibacterial activity against Pseudomonas aeruginosa ATCC 27853 assessed as diameter of inhibition zone at 10 mg/ml by disk diffusion assay; format: functional; conditions: read-out: DIZ
[4] = tested on: Trypanosoma brucei rhodesiense; assay: Trypanocidal activity against Trypanosoma brucei rhodesiense STIB900 incubated for 70 hrs by Alamar blue assay; format: functional, organism-based; conditions: STIB900, 70 h
L6 = assay: Cytotoxicity against rat L6 cells after 70 hrs by Alamar blue assay; format: cell-based; conditions: L6, 70 h
Staphylococcus aureus = assay: Antibacterial activity against Staphylococcus aureus ATCC 29213 assessed as diameter of inhibition zone at 10 mg/ml by disk diffusion assay; format: functional; conditions: read-out: DIZ
[5] = Selectivity index, ratio of IC50 for rat L6 cells to IC50 for Trypanosoma brucei rhodesiense STIB900; format: toxicity; conditions: read-out: Ratio IC50
Escherichia coli = assay: Antibacterial activity against Escherichia coli ATCC 25922 assessed as diameter of inhibition zone at 10 mg/ml by disk diffusion assay; format: functional; conditions: read-out: DIZ
HCT-116 = assay: Cytotoxicity against human HCT-116 cells assessed as inhibition of cell growth at 50 uM after 72 hrs by XTT assay relative to control; format: functional
U-251 = assay: Cytotoxicity against human U-251 cells assessed as inhibition of cell growth at 50 uM after 72 hrs by XTT assay relative to control; format: functional
Plasmodium falciparum [6] = assay: Antiplasmodial activity against chloroquine and pyrimethamine resistant Plasmodium falciparum K1 strain; format: functional, organism-based
[7] = Selectivity index, ratio of IC50 for rat L6 cells to IC50 for chloroquine and pyrimethamine resistant Plasmodium falciparum K1; format: toxicity; conditions: read-out: Ratio IC50

IC50 (Plasmodium falciparum [2]) | SMILES | zone of inhibition at 10000 µg/mL [1] | selectivity ratio [3] | zone of inhibition at 10000 µg/mL (Candida albicans) | zone of inhibition at 10000 µg/mL (Pseudomonas aeruginosa) | IC50 [4] | IC50 (L6; read-out: IC50) | zone of inhibition at 10000 µg/mL (Staphylococcus aureus) | selectivity ratio [5] | zone of inhibition at 10000 µg/mL (Escherichia coli) | inhibition at 50 µM (HCT-116) | inhibition at 50 µM (U-251) | IC50 (Plasmodium falciparum [6]) | selectivity ratio [7] | IC50 (L6)
17 nM | CC1(C)C(Cc2ccc(Cl)cc2)C(=[N+]2CCCC2)C=CN1Cc1ccccc1 (racemic) | 21 mm | 5260 | 11 mm | 0 mm | 500 nM | 89500 nM | 24 mm | 179 | 8 mm |  |  |  |  | 
38 nM | CC1(C)C(Cc2c(Cl)cccc2Cl)C(=[N+]2CCCC2)C=CN1Cc1c(Cl)cccc1Cl (racemic) | 34 mm | 23.9 | 25 mm | 6 mm | 24 nM | 910 nM | 23 mm | 37.9 | 14 mm | 100% | 100% |  |  | 
89 nM | CC1(C)C(Cc2ccccc2)C(=[N+]2CCCC2)C=CN1Cc1ccc([N+](=O)[O-])cc1 (racemic) | 14 mm | 2320 | 0 mm | 0 mm | 1030 nM | 206000 nM | 12 mm | 200 | 7 mm |  |  |  |  | 
31 nM | CC1(C)C(Cc2c(Cl)cccc2Cl)C(=[N+]2CCCC2)C=CN1Cc1ccccc1 (racemic) | 26 mm | 483 | 10 mm | 7 mm | 63 nM | 15000 nM | 23 mm | 238 | 10 mm |  |  |  |  | 
 | CC1(C)S[C@@H]2[C@H](NC(=O)[C@H](N)c3ccccc3)C(=O)N2[C@H]1C(=O)O [AMPICILLIN] | 45 mm |  | 0 mm | 0 mm |  |  |  |  | 15 mm |  |  |  |  | 
 | C[C@@H]1CC[C@H]2[C@@H](C)C(=O)O[C@@H]3O[C@@]4(C)CC[C@@H]1[C@]32OO4 [ARTEMISININ] |  |  |  |  |  |  |  |  |  |  |  | 3.4 nM | 132000 | 
 | CCN(CC)CCCC(C)Nc1ccnc2cc(Cl)ccc12 (stereo unspecified) [CHLOROQUINE] |  |  |  |  |  | 117000 nM |  |  |  |  |  |  |  | 
 | O=C(O)c1cn(C2CC2)c2cc(N3CCNCC3)c(F)cc2c1=O [CIPROFLOXACIN] |  |  | 0 mm | 0 mm |  |  | 14 mm |  |  |  |  |  |  | 
 | Nc1nc(N)nc(Nc2ccc([As]3SCC(CO)S3)cc2)n1 (stereo unspecified) [MELARSOPROL] |  |  |  |  |  |  |  | 2000 |  |  |  |  |  | 
 | COc1cc([C@@H]2c3cc4c(cc3[C@H](O)[C@H]3COC(=O)[C@H]23)OCO4)cc(OC)c1OC [PODOFILOX] |  |  |  |  |  |  |  |  |  |  |  |  |  | 12 nM
 | COc1cc(Cc2cnc(N)nc2N)cc(OC)c1OC [TRIMETHOPRIM] |  |  | 0 mm | 0 mm |  |  | 22 mm |  |  |  |  |  |  | 

SMILES | IC50 (Plasmodium falciparum [2]) | zone of inhibition at 10000 µg/mL [1] | selectivity ratio [3] | zone of inhibition at 10000 µg/mL (Candida albicans) | zone of inhibition at 10000 µg/mL (Pseudomonas aeruginosa) | IC50 [4] | IC50 (L6; read-out: IC50) | zone of inhibition at 10000 µg/mL (Staphylococcus aureus) | selectivity ratio [5] | zone of inhibition at 10000 µg/mL (Escherichia coli) | inhibition at 50 µM (HCT-116) | inhibition at 50 µM (U-251) | IC50 (Plasmodium falciparum [6]) | selectivity ratio [7] | IC50 (L6)
CC1(C)C(Cc2ccc(Cl)cc2)C(=[N+]2CCCC2)C=CN1Cc1ccc(Cl)cc1 (racemic) | 1.4 nM | 34 mm | 8980 | 20 mm | 7 mm | 170 nM | 12600 nM | 21 mm | 73.9 | 15 mm | 100% | 100% | 1.6 nM | 7860 | 
